Active and inactive are the calls of the source. No cut-off for these calls is given here.
How the values were obtained:
Quadruplex DNA [1] = assay: Binding affinity to 5-terminal mt6363 DNA (unknown origin) assessed as dissociation constant by TAMRA-labeled G4 quenching assay; assay type: nucleic-acid assay
Quadruplex DNA [2] = assay: Stabilization of fluorescently labelled G4-quadruplex mt6363 DNA (unknown origin) assessed as effect on thermal stability of DNA structure by measuring change in melting temperature at 1 uM by FRET melting assay; assay type: nucleic-acid assay
[3] = Drug localization in mitochondria of mouse 4T1 cells assessed as signal colocalization incubated for 30 mins by MitoTracker Green staining based analysis; assay type: ADME; conditions: 4t1, 0.5 h
4T1 [4] = assay: Inhibition of colony formation in mouse 4T1 cells assessed as decrease in number of colonies measured after 10 days of treatment by […]; assay type: functional, cell-based; conditions: dose <= 2.0 µM, time 10.0 day
4T1 [5] = assay: Inhibition of tumor metastasis in mouse 4T1 cells assessed as reduction in wound healing after 24 hrs; assay type: functional, cell-based
4T1 [6] = assay: Induction of apoptosis in mouse 4T1 cells assessed as decrease in caspase-3 level at 5 uM by Western blotting analysis; assay type: functional, cell-based
Mitochondrial membrane = assay: Disruption of mitochondrial membrane potential in mouse 4T1 cells assessed as increase green fluorescence at 0 to 5 uM by JC-1 staining based analysis; conditions: dose 0-5 µM
4T1 [7] = assay: Induction of mitochondrial damage in mouse 4T1 cells assessed as increase in ND4 level by qPCR analysis; assay type: functional, cell-based
4T1 [8] = assay: Induction of ROS generation in mouse 4T1 cells assessed as increase ROS level by DCFH-DA staining based analysis; assay type: functional, cell-based
4T1 [9] = assay: Induction of ROS generation in mouse 4T1 cells assessed as increase green fluorescence by DCFH-DA staining based analysis; assay type: functional, cell-based
4T1 [10] = assay: Induction of ROS generation in mouse 4T1 cells assessed as increase 8-OG level in presence of 8-oxoguanine by DAPI staining based immunofluorescence based analysis; assay type: functional, cell-based
4T1 [11] = assay: Induction of mitochondrial damage in mouse 4T1 cells assessed as dispersion of fluorescence Mitotracker red incubated for 1 hrs and measured after 24 hrs by immunofluorescence analysis; assay type: functional, cell-based; conditions: time 25.0 hrs
4T1 [12] = assay: Activation of cGAS-STING pathway in mouse 4T1 cells assessed as increase in cGAS expression level by Western blot analysis; assay type: cell-based; conditions: filed as activator, dose <= 5.0 µM
4T1 [13] = assay: Activation of cGAS-STING pathway in mouse 4T1 cells assessed as […] in STING phosphorylation up to 5 uM by Western blot analysis; assay type: cell-based; conditions: filed as activator
4T1 [14] = assay: Activation of cGAS-STING signaling pathway in mouse 4T1 cells assessed as […] in TBK1 phosphorylation up to 5 uM by Western blot analysis; assay type: cell-based; conditions: filed as activator
4T1 [15] = assay: Activation of cGAS-STING signaling pathway in mouse 4T1 cells assessed as […] in IRF3 phosphorylation up to 5 uM by Western blot analysis; assay type: cell-based; conditions: filed as activator
4T1 [16] = assay: Activation of cGAS-STING signaling pathway in mouse 4T1 cells assessed as increase in IFN-beta level at 5 uM by qPCR analysis; assay type: cell-based; conditions: filed as activator
4T1 [17] = assay: Activation of cGAS-STING signaling pathway in mouse 4T1 cells assessed as increase in IL-6 level at 5 uM by qPCR analysis; assay type: cell-based; conditions: filed as activator
4T1 [18] = assay: Activation of cGAS-STING signaling pathway in mouse 4T1 cells assessed as increase in TNF-alpha level at 5 uM by qPCR analysis; assay type: cell-based; conditions: filed as activator
4T1 [19] = assay: Induction of ROS generation in mouse 4T1 cells assessed as decrease ROS level at 5 uM in presence of NAC by […] analysis; assay type: functional, cell-based
4T1 [20] = assay: Induction of mitochondrial damage in mouse 4T1 cells assessed as decrease in CytB level at 5 uM in presence of NAC by qPCR analysis; assay type: functional, cell-based
4T1 [21] = assay: Antitumor activity against mouse 4T1 cells implanted with female BALB/c mouse assessed as decrease tumor weight at 2.5 mg/kg, sc administered for every 3 days for 2 weeks and measured on day 21; assay type: functional, organism-based; conditions: time 21.0 day
4T1 [22] = assay: Induction of mitochondrial damage in mouse 4T1 cells assessed as decrease in ND4 level at 5 uM in presence of NAC by qPCR analysis; assay type: functional, cell-based
4T1 [23] = assay: Induction of mitochondrial damage in mouse 4T1 cells assessed as decrease in Dloop2 level at 5 uM in presence of DDC by qPCR analysis; assay type: functional, cell-based
4T1 [24] = assay: Antitumor activity against mouse 4T1 cells implanted with female BALB/c mouse assessed as decrease tumor volume at 2.5 mg/kg, sc administered for every 3 days for 2 weeks from day 7; assay type: functional, organism-based
Mus musculus [25] = assay: Immunostimulatory activity in female BALB/c mouse implanted with mouse 4T1 cells assessed as upregulation of M1 macrophages level 2.5 mg/kg, sc by flow cytometry analysis; assay type: functional, organism-based
Mus musculus [26] = assay: Immunostimulatory activity in female BALB/c mouse implanted with mouse 4T1 cells assessed as increase in number of activated CD8+ T cells in spleen 2.5 mg/kg, sc by flow cytometry; assay type: functional, organism-based
Mus musculus [27] = assay: Immunostimulatory activity in female BALB/c mouse implanted with mouse 4T1 cells assessed as tumor infiltrating lymphocytes by measuring increase in CD4+ and CD8+T cells at 2.5 mg/kg, sc by immunohistochemistry analysis; assay type: functional, organism-based
Quadruplex DNA [28] = assay: Binding affinity to G4-quadruplex mt6363 DNA (unknown origin) assessed as melting temperature at 10 uM incubated for 2 hrs by fluorescence based analysis; assay type: nucleic-acid assay
4T1 [29] = assay: Activation of cGAS-STING signaling pathway in mouse 4T1 cells assessed as increase in IL-6 level up to 5 uM by ELISA analysis; assay type: cell-based; conditions: filed as activator
Mus musculus [30] = assay: In-vivo activation of cGAS-STING signaling pathway in female BALB/c mouse assessed as effect on cGAS level in tumor at 2.5 mg/kg, sc by Western blot analysis; assay type: functional, organism-based
Mus musculus [31] = assay: In-vivo activation of cGAS-STING signaling pathway in female BALB/c mouse assessed as STING level in tumor at 2.5 mg/kg, sc by Western blot analysis; assay type: functional, organism-based
Mus musculus [32] = assay: In-vivo activation of cGAS-STING signaling pathway in female BALB/c mouse assessed as TBK1 level in tumor at 2.5 mg/kg, sc by Western blot analysis; assay type: functional, organism-based
Mus musculus [33] = assay: In-vivo activation of cGAS-STING signaling pathway in female BALB/c mouse assessed as IRF3 level in tumor at 2.5 mg/kg, sc by Western blot analysis; assay type: functional, organism-based
4T1 [34] = assay: Antitumor activity against mouse 4T1 cells implanted with female BALB/c mouse assessed as effect on PARP level in tumor at 2.5 mg/kg, sc measured for 21 days; assay type: functional, organism-based; conditions: time 21.0 day
Mus musculus [35] = assay: In-vivo activation of cGAS-STING signaling pathway in female BALB/c mouse assessed as increase in IFN-beta level at 2.5 mg/kg, sc by ELISA analysis; assay type: functional, organism-based
Mus musculus [36] = assay: In-vivo activation of cGAS-STING signaling pathway in female BALB/c mouse assessed as increase in IL-6 level at 2.5 mg/kg, sc by ELISA analysis; assay type: functional, organism-based

For `COc1ccc(N(c2ccc(/C=C/C3=[N+](C)c4ccc5ccccc5c4C3(C)C)cc2)c2ccc(OC)cc2)cc1.[I-]`, the Kd (Quadruplex DNA [1]) was 2.4 µM, the ΔTm (Quadruplex DNA [2]) was 28.5 °C and the Drug uptake [3] was “Active”. For the same molecule, the Activity (4T1 [4]) was “Dose-dependent-effect”, the Activity (4T1 [5]) was “Active” and the Activity (4T1 [6]) was “Active”. For the same molecule, the Activity (Mitochondrial membrane) was “Active”, the Activity (4T1 [7]) was “Active” and the Activity (4T1 [8]) was “Active”. The Activity (4T1 [9]) was “Dose-dependent-effect”, the Activity (4T1 [10]) was “Active” and the Activity (4T1 [11]) was “Active”. For the same molecule, the Activity (4T1 [12]) was “Dose-dependent-effect”, the Activity (4T1 [13]) was “Active” and the Activity (4T1 [14]) was “Active”. For the same molecule, the Activity (4T1 [15]) was “Active”, the Activity (4T1 [16]) was “Active” and the Activity (4T1 [17]) was “Active”. For the same molecule, the Activity (4T1 [18]) was “Active”, the Activity (4T1 [19]) was “Active” and the Activity (4T1 [20]) was “Active”. The Activity (4T1 [21]) was “Active”, the Activity (4T1 [22]) was “Active” and the Activity (4T1 [23]) was “Active”. The Activity (4T1 [24]) was “Active”, the Activity (Mus musculus [25]) was “Active” and the Activity (Mus musculus [26]) was “Active”. For the same molecule, the Activity (Mus musculus [27]) was “Active”, the Tm (Quadruplex DNA [28]) was 46.2 °C and the Activity (4T1 [29]) was “Active”. The Activity (Mus musculus [30]) was “Active”, the Activity (Mus musculus [31]) was “Active” and the Activity (Mus musculus [32]) was “Active”. The Activity (Mus musculus [33]) was “Active”, the Activity (4T1 [34]) was “Active” and the Activity (Mus musculus [35]) was “Active”. For the same molecule, the Activity (Mus musculus [36]) was “Active”.

Source: ChEMBL document CHEMBL6074620, “Discovery of a triphenylamine-based ligand that targets mitochondrial DNA G-quadruplexes and activates the cGAS-STING immunomodulatory pathway” (Eur J Med Chem, 2024)
